Experimental data taken from patent US5389663A, “1-(1h-1,2,4-triazole-yl)-2-propanol compounds” (Takeda Chemical Industries, Ltd., priority 1991, dated 1995).

What follows are compounds tested on Candida albicans IFO 0583 (assay: Paper disc agar diffusion, growth inhibition zone, Candida albicans IFO 0583). Conditions: Candida albicans, IFO0583, 48 h, Table 5; Medium A, 28° C., two-day culture, 1000 μ/ml, 8 mm disc; read-out: Diameter of growth-inhibition zone.
Type: cell-based
Procedure: Evaluation of the antifungal activities of the compound of formula (I) was conducted by the following method: a sheet of filter paper disc (manufactured by Toyo Seisakusho, 8 mm in diameter) soaked in a […] solution of a compound of formula (I) in methanol was placed on an agar plate containing various fungi, which was incubated at 28° C. for two days, and the diameter of the growth inhibition zone around the filter paper disc was measured. The following culture media were used: A: yeast nitrogen base agar medium (pH 7.0) B: Sabouraud agar medium
cpd. No. (Medium A, 28° C., two-day culture)
Compound `CCCCNS(=O)(=O)C(C)=C(Cn1cncn1)c1ccc(F)cc1F` (single isomer, unassigned) [Compound 32, N-butyl-3-(2,4-difluorophenyl)-4-(1H-1,2,4-triazol-1-yl) -2-butene-2-sulfonamide] has a zone of inhibition at 1000 µg/mL of 12 mm. With `CC(=C(Cn1cncn1)c1ccc(F)cc1F)S(=O)(=O)N(C)C` (single isomer, unassigned) [Compound 34, N,N-dimethyl-3-(2,4-difluorophenyl)-4-(1H-1,2,4-triazol-1-yl)-2-butene-2-sufonamide] the zone of inhibition at 1000 µg/mL was 15 mm. Compound `C[C@@H](SNC1CCCCC1)[C@](O)(Cn1cncn1)c1ccc(F)cc1F` [Compound 5] has a zone of inhibition at 1000 µg/mL of 35 mm. `C[C@@H](SN1CCOCC1)[C@](O)(Cn1cncn1)c1ccc(F)cc1F` [Compound 7, N-[(2R,3R)-3-(2,4-difluorophenyl)-3-hydroxy-4-(1H-1,2,4-triazol-1-yl) -2-butylsulfenyl]morpholine] was tested, and the zone of inhibition at 1000 µg/mL was 33 mm. In the case of `C[C@@H](SN1CCN(C(=O)OC(C)(C)C)CC1)[C@](O)(Cn1cncn1)c1ccc(F)cc1F` [Compound 17, N-tert-butoxycarbonyl-4-[(2R,3R)-3-(2,4-difluorophenyl)-3-hydroxy-4-(1H-1,2,4-triazol-1-yl)-2-butylsulfenyl]piperazine], the zone of inhibition at 1000 µg/mL is reported as 40 mm. For `C[C@@H]([S+]([O-])N1CCN(C(=O)OC(C)(C)C)CC1)[C@](O)(Cn1cncn1)c1ccc(F)cc1F` (some centres unmarked) [Compound 18], the zone of inhibition at 1000 µg/mL was 37 mm. With `C[C@H]([C@](O)(Cn1cncn1)c1ccc(F)cc1F)S(=O)(=O)N1CCN(C(=O)OC(C)(C)C)CC1` [Compound 19, 1-tert-butoxycarbonyl-4-[(2R,3R)-3-(2,4-difluorophenyl)-3-hydroxy-4-(1H-i,2,4-triazol-1-yl) -2-butylsulfonyl]piperazine] the zone of inhibition at 1000 µg/mL was 40 mm. Work on `C[C@H]([C@](O)(Cn1cncn1)c1ccc(F)cc1F)S(=O)(=O)N1CCNCC1` [Compound 20, 1-[(2R,3R)-3-(2,4-difluorophenyl)-3hydroxy-4-(1H-2,4-triazol-1-yl)-2-butylsulfonyl]piperazine] yielded a zone of inhibition at 1000 µg/mL of 22 mm. For `C[C@H]([C@](O)(Cn1cncn1)c1ccc(F)cc1F)S(=O)(=O)Nc1ccc(Br)cc1` [Compound 22, N-(4-bromophenyl)-[(2R, 3R)-3-(2,4-difluorophenyl)-3-hydroxy-4-(1H-1,2,4-triazol-1-yl)-2-butane]sulfonamide], the zone of inhibition at 1000 µg/mL was 30 mm. Work on `C[C@H]([C@](O)(Cn1cncn1)c1ccc(F)cc1F)S(=O)(=O)N1CCN(C(=O)c2ccc(C(F)(F)F)cc2)CC1` [Compound 24, 1-[(2R,3R)-3-(2,4-difluorophenyl)-3-hydroxy-4-(1H-1,2,4-triazol-1-yl)-2-butylsulfonyl]-4-(4-trifluoromethylbenzoyl)piperazine] yielded a zone of inhibition at 1000 µg/mL of 37 mm. `CC(=O)N1CCN(S(=O)(=O)[C@H](C)[C@](O)(Cn2cncn2)c2ccc(F)cc2F)CC1` [Compound 25, 1-acetyl-4-[(2R,3R)-3-(2,4-difluorophenyl)-3-hydroxy-4-(1H-1,2,4-triazol-1-yl)-2-butylsulfonyl]piperazine] showed a zone of inhibition at 1000 µg/mL of 30 mm. `C[C@H]([C@](O)(Cn1cncn1)c1ccc(F)cc1F)S(=O)(=O)N1CCN(Cc2nncn2C)CC1` [Compound 26, 1-[(2R,3R)-3-(2,4-difluorophenyl)-3-hydroxy-4-(1H-1,2,4-triazol-1-yl)-2-butylsulfonyl]-4-(4-methyl-4H-1,2,4-triazol-3-ylmethyl) piperazine] was tested, and the zone of inhibition at 1000 µg/mL was 20 mm.

Same assay, conditions: Table 5; Medium A, 28° C., two-day culture, 1000 μ/ml, 8 mm disc
For `CC(=C(Cn1cncn1)c1ccc(F)cc1F)S(=O)(=O)N1CCN(c2ccccc2)CC1` (single isomer, unassigned) [Compound 30, 1-[3-(2,4-difluorophenyl)-4-(1H-1,2,4-triazol-1-yl)-2-buten-2-ylsulfonyl]-4-phenylpiperazine], the “Diameter of growth-inhibition zone” value was 12 mm. `CC(=C(Cn1cncn1)c1ccc(F)cc1F)S(=O)(=O)N1CCN(c2ccccc2)CC1` (single isomer, unassigned) [Compound 31, 1-[3-(2,4-difluorophenyl)-4-(1H-1,2,4-triazol-1-yl)-2-buten-2-ylsulfonyl]-4-phenylpiperazine] was tested, and the “Diameter of growth-inhibition zone” value was 35 mm.
